For 37 molecules, IC50 results are on record in patent publication US10669268B2, “Bicyclic derivatives” (Hoffmann-La Roche Inc., priority 2012, dated 2020).

The target in this test is ATX (human His-tagged) (Homo sapiens (Human), UniProt Q13822). The test can be described thus: Human ATX enzyme inhibition assay (fluorescence quenching, MR121 substrate). The conditions noted are these: 30 nM ATX, 1 μM MR121 substrate, 30° C., pH 8.0. Format: biochemical. Put shortly:
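Tris-HCl buffer at pH 8.0 contained 140 mM NaCl, 5 mM KCl, 1 mM each CaCl2 and MgCl2, and 0.01% Triton X-100. The MR121 substrate (1 μM final) was incubated with enzyme for 15 min at 30 °C, and activity was read by fluorescence quenching.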
As for `O=C(/C=C/c1ccc(F)cc1)N1CC[C@@H]2CN(C(=O)c3ccc4[nH]nnc4c3)C[C@@H]2CC1` [Example 15.14], the IC50 is 0.062 µM.
Next, `O=C(/C=C/c1ccccc1)N1CC[C@@H]2CN(C(=O)c3ccc4[nH]nnc4c3)C[C@@H]2CC1` [Example 15.15]: 0.156 µM.
The same measure for `O=C(/C=C/c1ccccn1)N1CC[C@@H]2CN(C(=O)c3ccc4[nH]nnc4c3)C[C@@H]2CC1` [Example 15.16]: 5.79 µM; for `O=C(/C=C/c1cccnc1)N1CC[C@@H]2CN(C(=O)c3ccc4[nH]nnc4c3)C[C@@H]2CC1` [Example 15.17]: 3.95 µM.
Next, `O=C(/C=C/c1cccc(Cl)c1)N1CC[C@@H]2CN(C(=O)c3ccc4[nH]nnc4c3)C[C@@H]2CC1` [Example 15.18]: 0.02 µM; `O=C(/C=C/c1ccc(Cl)cc1)N1C[C@H]2CCN(C(=O)c3ccc4[nH]nnc4c3)CC[C@H]2C1` [Example 15.19]: 0.009 µM.
In the case of `O=C(/C=C/c1cccc(OC(F)(F)F)c1)N1C[C@H]2CCN(C(=O)c3ccc4[nH]nnc4c3)CC[C@H]2C1` [Example 15.20], half-maximal inhibition (IC50) required 0.049 µM.
`O=C(/C=C/c1ccc(OC(F)F)cc1)N1CC[C@@H]2CN(C(=O)c3ccc4[nH]nnc4c3)C[C@@H]2CC1` [Example 15.21] showed a 50% inhibitory concentration (IC50) of 0.005 µM. Compared with the last molecule, the IC50 is about 9.8-fold lower.
Next, `O=C(/C=C/c1cccc(OC(F)(F)F)c1)N1C[C@@H]2CN(C(=O)c3ccc4[nH]nnc4c3)C[C@H]2C1` [Example 15.22]: 0.053 µM; `N#Cc1ccc(/C=C/C(=O)N2C[C@@H]3CN(C(=O)c4ccc5[nH]nnc5c4)C[C@H]3C2)cc1` [Example 15.23]: 0.032 µM; `O=C(/C=C/c1ccc(OC(F)(F)F)cc1)N1C[C@@H]2CN(C(=O)c3ccc4[nH]nnc4c3)C[C@H]2C1` [Example 15.24]: 0.01 µM.
For `O=C(/C=C/c1cc(Cl)cc(Cl)c1)N1CC[C@@H]2CN(C(=O)c3ccc4[nH]nnc4c3)C[C@@H]2CC1` [Example 15.27], inhibition was half-maximal at 0.002 µM (IC50).
The molecule `O=C(/C=C/c1ccncc1)N1CC[C@@H]2CN(C(=O)c3ccc4[nH]nnc4c3)C[C@@H]2CC1` [Example 15.28] displayed an IC50 of 4.42 µM.
`O=C(/C=C/c1ccc(F)cc1F)N1CC[C@@H]2CN(C(=O)c3ccc4[nH]nnc4c3)C[C@@H]2CC1` [Example 15.29] registered an IC50 of 0.034 µM.
The same measure for `O=C(/C=C/c1ccc(Cl)cc1Cl)N1CC[C@@H]2CN(C(=O)c3ccc4[nH]nnc4c3)C[C@@H]2CC1` [Example 15.30]: 0.014 µM.
Next, `O=C(/C=C/c1ccc(Cl)c(Cl)c1)N1CC[C@@H]2CN(C(=O)c3ccc4[nH]nnc4c3)C[C@@H]2CC1` [Example 15.31]: 0.038 µM; `N#Cc1ccc(/C=C/C(=O)N2CC[C@@H]3CN(C(=O)c4ccc5[nH]nnc5c4)C[C@@H]3CC2)c(F)c1` [Example 15.34]: 0.003 µM; `N#Cc1ccc(/C=C/C(=O)N2C[C@@H]3CN(C(=O)c4ccc5[nH]nnc5c4)C[C@H]3C2)c(F)c1` [Example 15.35]: 0.031 µM.
`O=C(/C=C/c1ccc(OC(F)F)cc1)N1C[C@@H]2CN(C(=O)c3ccc4[nH]nnc4c3)C[C@H]2C1` [Example 15.36, (E)-1-((3aR,6aR)-5-(1H-benzo[d][1,2,3]triazole-5-carbonyl)hexahydro-pyrrolo[3,4-c]pyrrol-2(1H)-yl)-3-(4-(difluoromethoxy)phenyl)-prop-2-en-1-one]: the IC50 came to 0.003 µM.
In the case of `O=C(/C=C/c1ccc(OC(F)(F)F)cc1)N1CC[C@H]2CN(C(=O)c3ccc4[nH]nnc4c3)C[C@H]2C1` [Example 15.37], the half-maximal inhibitory concentration (IC50) is 0.093 µM.
Next, `N#Cc1cccc(/C=C/C(=O)N2CC[C@@H]3CN(C(=O)c4ccc5[nH]nnc5c4)C[C@@H]3CC2)c1` [Example 15.38]: 0.05 µM; `O=C(/C=C/c1ccc(OC(F)(F)F)cc1F)N1CC[C@@H]2CN(C(=O)c3ccc4[nH]nnc4c3)C[C@@H]2CC1` [Example 15.39]: 0.005 µM.
The same measure for `O=C(/C=C/c1ccc(OC(F)(F)F)cc1F)N1C[C@@H]2CN(C(=O)c3ccc4[nH]nnc4c3)C[C@H]2C1` [Example 15.40, (E)-1-((3aR,6aR)-5-(1H-benzo[d][1,2,3]triazole-5-carbonyl)hexahydro-pyrrolo[3,4-c]pyrrol-2(1H)-yl)-3-(2-fluoro-4-(trifluoromethoxy)phenyl)-prop-2-en-1-one]: 0.005 µM; for `O=C(/C=C/c1ccc(Cl)cc1F)N1C[C@@H]2CN(C(=O)c3ccc4[nH]nnc4c3)C[C@H]2C1` [Example 15.41]: 0.017 µM.
Molecule `O=C(/C=C/c1cc(Cl)cc(Cl)c1)N1C[C@@H]2CN(C(=O)c3ccc4[nH]nnc4c3)C[C@H]2C1` [Example 15.42] returned an IC50 of 0.006 µM.
Consider `O=C(/C=C/c1ccc(OC(F)(F)F)cc1)N1C[C@@H]2CN(C(=O)C3CCc4[nH]nnc4C3)C[C@@H]2C1` (stereo partly shown) [Example 15.43], for which the IC50 came to 0.13 µM.
Next, `O=C(CCc1ccc(OC(F)(F)F)cc1)N1C[C@@H]2CN(C(=O)c3ccc4[nH]nnc4c3)C[C@H]2C1` [Example 15.44]: 0.006 µM; `CS(=O)(=O)c1cc(Cl)cc(/C=C/C(=O)N2C[C@@H]3CN(C(=O)c4ccc5[nH]nnc5c4)C[C@H]3C2)c1` [Example 15.46]: 0.018 µM; `COc1cc(/C=C/C(=O)N2C[C@@H]3CN(C(=O)c4ccc5[nH]nnc5c4)C[C@H]3C2)cc(OC)c1` [Example 15.47]: 0.096 µM.
`O=C(/C=C/c1cc(Cl)cc(OC(F)(F)F)c1)N1C[C@@H]2CN(C(=O)c3ccc4[nH]nnc4c3)C[C@H]2C1` [Example 15.48] had an IC50 of 0.006 µM.
Next, `COc1cc(Cl)cc(/C=C/C(=O)N2C[C@@H]3CN(C(=O)c4ccc5[nH]nnc5c4)C[C@H]3C2)c1` [Example 15.49]: 0.016 µM; `N#Cc1cc(Cl)cc(/C=C/C(=O)N2C[C@@H]3CN(C(=O)c4ccc5[nH]nnc5c4)C[C@H]3C2)c1` [Example 15.50]: 0.006 µM.
Next, `COc1cc(/C=C/C(=O)N2C[C@@H]3CN(C(=O)c4ccc5[nH]nnc5c4)C[C@H]3C2)cc(OC(F)(F)F)c1` [Example 15.51, (E)-1-[(3aR,6aR)-5-(1H-benzotriazole-5-carbonyl)-hexahydro-pyrrolo[3,4-c]pyrrol-2-yl]-3-(3-methoxy-5-trifluoromethoxy-phenyl)-prop-2-ene-1-one]: 0.006 µM; `O=C1N[C@@H]2CCN(C(=O)N3C[C@H]4CN(C(=O)/C=C/c5ccc(OC(F)(F)F)cc5)C[C@@H]4C3)C[C@H]2O1` [Example 15.54]: 0.28 µM.
For the molecule `O=C1N[C@@H]2CCN(C(=O)N3C[C@H]4CN(C(=O)CCc5ccc(OC(F)(F)F)cc5)C[C@@H]4C3)C[C@H]2O1` [Example 15.55], 0.478 µM corresponded to half-maximal inhibition (IC50). This IC50 is about 1.7-fold higher than that of the molecule before.
In turn, `O=C(/C=C/c1ccccc1)N1C[C@@H]2CN(C(=O)c3ccc4[nH]nnc4c3)C[C@H]2C1` [Example 15.56] yielded a concentration for half-maximal inhibition (IC50) of 0.655 µM. This IC50 and that of the molecule before are within 1.5-fold of each other.
Next, `O=C(CCc1ccccc1)N1C[C@@H]2CN(C(=O)c3ccc4[nH]nnc4c3)C[C@H]2C1` [Example 15.57]: 0.494 µM.

One may read the IC50 as the concentration at which inhibition is half-maximal.
